From patent US20240325398A1, “COMBINATION THERAPIES” (Infinity Pharmaceuticals, Inc., priority 2014, published 2024)

Experiments:
SUDHL6 = test: Combination study of Example 1 (data not shown); assay type: cell-based; conditions: combination with Compound 1, SUDHL6 cell line
Excerpt: The method is described as follows.
Additive effect is CI=1.0. […] Antagonistic effect is CI>1.0.

OCI-Ly3 = test: Combination study, ATPLite 72 h, dose matrix (Synergy Score, CI50)
Jeko-1 = test: as above; conditions: combination with Compound 1
CLL = test: Clinical trial, Compound 1 monotherapy in a patient with CLL; assay type: in vivo, human; conditions: one CLL patient
[1] = combination with CAL-101, OCT-Ly3, Example 2
[2] = combination with Cmpd 1, OCT-Ly3, Example 2
[3] = combination with Compound 1, OCI-Ly3, 72 h

| SMILES | synergy of the combination (SUDHL6) | Synergy Score growth inhibition (OCI-Ly3; [1]) | Synergy Score inhibition (OCI-Ly3; [1]) | CI50 growth inhibition (OCI-Ly3; [2]) | Synergy Score growth inhibition (OCI-Ly3; [2]) | Synergy Score inhibition (OCI-Ly3; [2]) | CI50 growth inhibition (OCI-Ly3; [3]) | Synergy Score growth inhibition (OCI-Ly3; [3]) | Synergy Score inhibition (OCI-Ly3; [3]) | CI50 growth inhibition (Jeko-1) | CI50 inhibition (Jeko-1) | Synergy Score growth inhibition (Jeko-1) | Synergy Score inhibition (Jeko-1) | Absolute lymphocyte count (ALC) (CLL; 25 mg bid, C5D1, ALC=257 at C1D1) | clinical response (CLL; 25 mg bid, after C7 (cycle 7), STK11 copy loss detected at C5D1) | clinical response (CLL; monotherapy 25 mg bid, C3D1 (cycle 3, day 1)) |
| --- | --- | --- | --- | --- | --- | --- | --- | --- | --- | --- | --- | --- | --- | --- | --- | --- |
| C[C@@H]1C[C@H]2[C@@H]3CCC4=CC(=O)C=C[C@]4(C)[C@@]3(F)[C@@H](O)C[C@]2(C)[C@@]1(O)C(=O)CO [dexamethasone, (8S,9R,10S,11S,13S,14S,16R,17R)-9-Fluoro-11,17-dihydroxy-17-(2-hydroxyacetyl)-10,13,16-trimethyl-6,7,8,9,10,11,12,13,14,15,16,17-dodecahydro-3H-cyclopenta[a]phenanthren-3-one] | significant synergy | A1 (A1=0.0001 to <1) | A1 (A1=0.0001 to <1) | W (W=≥1) | A1 (A1=0.0001 to <1) | A1 (A1=0.0001 to <1) | U (U=0.7 to <1) | A1 (A1=0.0001 to <1) | A1 (A1=0.0001 to <1) | U (U=0.7 to <1) | S (S=0.01 to <0.5) | A3 (A3=>3) | A3 (A3=>3) |  |  |  |
| C[C@H](Nc1ncnc2[nH]cnc12)c1cc2cccc(Cl)c2c(=O)n1-c1ccccc1 [Compound 1, (S)-3-(1-((9H-purin-6-yl)amino)ethyl)-8-chloro-2-phenylisoquinolin-1(2H)-one] |  |  |  |  |  |  |  |  |  |  |  |  |  | 134 | progressed | partial response |
